US10479780B2, “Aminopyrazole derivatives” (Chugai Seiyaku Kabushiki Kaisha, priority 2015, dated 2019)

Assays:
Format in all cases: biochemical
human Yes1 enzyme = biological target: T1, human Yes1 enzyme (Homo sapiens, UniProt P07947); assay: Yes1 enzyme inhibitory activity (time-resolved fluorometry, biotinylated peptide phosphorylation); settings: read-out: YES_IC50
T1 construct: made in house
Method in brief: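 Inhibition was expressed against a compound-free control to give IC50, using TR-FRET read-out (Eu-cryptate anti-pTyr antibody, streptavidin-XL665).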

human Src enzyme = biological target: T2, human Src enzyme (Homo sapiens, UniProt P12931); assay: Src enzyme inhibitory activity (time-resolved fluorometry, biotinylated peptide phosphorylation); settings: read-out: SRC_IC50
T2 construct: purchased Carna Biosciences, Inc. 08-173
T2 sequence (P12931 whole entry): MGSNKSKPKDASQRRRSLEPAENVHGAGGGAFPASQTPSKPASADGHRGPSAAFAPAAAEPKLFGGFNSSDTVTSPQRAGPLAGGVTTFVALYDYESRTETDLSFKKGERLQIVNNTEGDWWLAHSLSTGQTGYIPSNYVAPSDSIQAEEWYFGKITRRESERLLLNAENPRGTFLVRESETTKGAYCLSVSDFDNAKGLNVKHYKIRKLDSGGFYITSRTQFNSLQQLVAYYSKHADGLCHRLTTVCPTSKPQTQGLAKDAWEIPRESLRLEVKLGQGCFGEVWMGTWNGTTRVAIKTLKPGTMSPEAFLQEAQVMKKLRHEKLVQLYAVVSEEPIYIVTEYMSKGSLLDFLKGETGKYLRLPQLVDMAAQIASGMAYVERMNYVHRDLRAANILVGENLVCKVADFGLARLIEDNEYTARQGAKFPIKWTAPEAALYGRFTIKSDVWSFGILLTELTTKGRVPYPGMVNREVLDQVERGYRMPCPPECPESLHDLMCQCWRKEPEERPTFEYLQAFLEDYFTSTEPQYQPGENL
Method in brief: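 Compounds were tested for blocking tyrosine phosphorylation of a biotinylated peptide substrate by recombinant human Src. Phosphorylated product was quantified by time-resolved fluorometry using europium cryptate and XL665 conjugates, and IC50 was calculated against the compound-free control.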

human Lck enzyme = biological target: T3, human Lck enzyme (Homo sapiens, UniProt P06239); assay: Lck enzyme inhibitory activity (time-resolved fluorometry, biotinylated peptide phosphorylation); settings: read-out: LCK_IC50
T3 construct: purchased Carna Biosciences, Inc. 08-170
T3 sequence (P06239 whole entry): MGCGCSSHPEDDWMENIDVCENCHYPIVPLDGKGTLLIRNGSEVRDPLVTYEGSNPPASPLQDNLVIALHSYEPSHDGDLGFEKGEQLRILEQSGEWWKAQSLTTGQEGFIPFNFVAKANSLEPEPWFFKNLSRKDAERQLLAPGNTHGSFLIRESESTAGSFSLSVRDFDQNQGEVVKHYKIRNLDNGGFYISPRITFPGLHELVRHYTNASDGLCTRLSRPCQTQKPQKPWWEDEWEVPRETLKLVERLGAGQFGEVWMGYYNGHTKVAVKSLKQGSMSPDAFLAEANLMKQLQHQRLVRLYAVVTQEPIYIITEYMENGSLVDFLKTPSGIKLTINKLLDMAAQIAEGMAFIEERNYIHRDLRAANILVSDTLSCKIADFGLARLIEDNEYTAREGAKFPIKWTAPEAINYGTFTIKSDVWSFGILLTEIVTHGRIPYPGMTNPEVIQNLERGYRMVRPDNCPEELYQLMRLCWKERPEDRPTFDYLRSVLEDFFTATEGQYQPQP
Method in brief: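 Readout pairs a europium cryptate-labelled anti-phosphotyrosine antibody with XL665-streptavidin, measured by time-resolved fluorescence. IC50 derived from percent inhibition against untreated controls.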

T1 sequence (P07947 whole entry): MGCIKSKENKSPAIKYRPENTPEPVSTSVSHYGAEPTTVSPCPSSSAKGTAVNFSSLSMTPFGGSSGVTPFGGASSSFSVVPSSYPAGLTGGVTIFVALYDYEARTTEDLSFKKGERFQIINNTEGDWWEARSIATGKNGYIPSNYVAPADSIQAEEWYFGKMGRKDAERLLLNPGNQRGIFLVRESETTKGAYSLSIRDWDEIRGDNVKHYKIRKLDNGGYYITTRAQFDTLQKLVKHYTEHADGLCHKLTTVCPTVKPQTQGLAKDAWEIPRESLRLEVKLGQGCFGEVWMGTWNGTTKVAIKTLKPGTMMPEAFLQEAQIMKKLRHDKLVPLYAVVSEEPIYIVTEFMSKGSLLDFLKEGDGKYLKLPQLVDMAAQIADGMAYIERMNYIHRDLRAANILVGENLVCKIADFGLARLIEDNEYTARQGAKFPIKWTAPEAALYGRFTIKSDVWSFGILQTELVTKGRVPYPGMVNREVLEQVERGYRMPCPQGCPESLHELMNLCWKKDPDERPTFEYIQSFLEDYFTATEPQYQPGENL

| Structure (SMILES) | IC50 (human Yes1 enzyme) [nM] | IC50 (human Src enzyme) [nM] | IC50 (human Lck enzyme) [nM] |
| --- | --- | --- | --- |
| Cc1cc2cc(C(=O)c3cnn(-c4cnc(Oc5c(F)cccc5F)cc4C)c3N)[nH]c2cc1N1C(=O)NC2(CCC2)C1=O [Example 5-1-341, 7-[2-[5-amino-1-[6-(2,6-difluorophenoxy)-4-methylpyridin-3-yl]pyrazole-4-carbonyl]-5-methyl-1H-indol-6-yl]-5,7-diazaspiro[3.4]octane-6,8-dione] | 2.7 | 53 | 7.4 |
| Cc1cc2cc(C(=O)c3cnn(-c4cnc(Oc5c(F)cccc5F)cc4C)c3N)[nH]c2cc1N1C(=O)NC2(CCOCC2)C1=O [Example 5-1-342, 3-[2-[5-amino-1-[6-(2,6-difluorophenoxy)-4-methylpyridin-3-yl]pyrazole-4-carbonyl]-5-methyl-1H-indol-6-yl]-8-oxa-1,3-diazaspiro[4.5] decane-2,4-dione] | 1.7 | 48 | 5.3 |
| Cc1cc(Oc2c(F)cccc2F)ncc1-n1ncc(C(=O)c2cc3cc(F)c(N4C(=O)NC5(CC5)C4=O)cc3[nH]2)c1N [Example 5-1-343, 6-[2-[5-amino-1-[6-(2,6-difluorophenoxy)-4-methylpyridin-3-yl]pyrazole-4-carbonyl]-5-fluoro-1H-indol-6-yl]-4,6-diazaspiro[2.4] heptane-5,7-dione] | 3 | 100 | 7.2 |
| Cc1cc(Oc2c(F)cccc2F)ncc1-n1ncc(C(=O)c2cc3cc(F)c(N4C(=O)NC5(CCCC5)C4=O)cc3[nH]2)c1N [Example 5-1-344, 3-[2-[5-amino-1-[6-(2,6-difluorophenoxy)-4-methylpyridin-3-yl]pyrazole-4-carbonyl]-5-fluoro-1H-indol-6-yl]-1,3-diazaspiro[4.4]nonane-2,4-dione] | 4.7 | 150 | 13 |
| Cc1cc(Oc2c(F)cccc2F)ncc1-n1ncc(C(=O)c2cc3cc(F)c(N4C(=O)NC5(COC5)C4=O)cc3[nH]2)c1N [Example 5-1-345, 7-[2-[5-amino-1-[6-(2,6-difluorophenoxy)-4-methylpyridin-3-yl]pyrazole-4-carbonyl]-5-fluoro-1H-indol-6-yl]-2-oxa-5,7-diazaspiro[3.4] octane-6,8-dione] | 1.6 | 47 | 3.2 |
| Cc1cc(Oc2c(F)cccc2F)ncc1-n1ncc(C(=O)c2cc3cc(SC(F)F)c(NS(=O)(=O)C4CCOCC4)cc3[nH]2)c1N [Example 5-1-346, N-[2-[5-amino-1-[6-(2,6-difluorophenoxy)-4-methylpyridin-3-yl]pyrazole-4-carbonyl]-5-(difluoromethylsulfanyl)-1H-indol-6-yl]oxane-4-sulfonamide] | 8.8 | 510 | 120 |
| Cc1cc2cc(C(=O)c3cnn(-c4ccc(Oc5ccccc5F)cc4C)c3N)[nH]c2cc1NS(=O)(=O)C1CCOCC1 [Example 5-1-347, N-[2-[5-amino-1-[4-(2-fluorophenoxy)-2-methylphenyl]pyrazole-4-carbonyl]-5-methyl-1H-indol-6-yl]oxane-4-sulfonamide] | 0.87 | 46 | 11 |
| Cc1cc(Oc2c(F)cccc2F)ncc1-n1ncc(C(=O)c2cc3cc(OCC(F)F)c(N4C(=O)N[C@]5(CCNC5)C4=O)cc3[nH]2)c1N [Example 5-1-348, (5S)-3-[2-[5-amino-1-[6-(2,6-difluorophenoxy)-4-methylpyridin-3-yl]pyrazole-4-carbonyl]-5-(2,2-difluoroethoxy)-1H-indol-6-yl]-1,3,7-triazaspiro[4.4]nonane-2,4-dione] | 0.8 | 13 | 2 |
| Cc1cc(Oc2ccccc2F)ccc1-n1ncc(C(=O)c2cc3cc(OCC(F)F)c(N4C(=O)NC5(CCNC5)C4=O)cc3[nH]2)c1N (stereo not drawn) [Example 5-1-349, 3-[2-[5-amino-1-[4-(2-fluorophenoxy)-2-methylphenyl]pyrazole-4-carbonyl]-5-(2,2-difluoroethoxy)-1H-indol-6-yl]-1,3,7-triazaspiro [4.4]nonane-2,4-dione] | 0.51 | 6.9 | 2.5 |
| Cc1cc(Oc2c(F)cccc2F)ncc1-n1ncc(C(=O)c2cc3cc(OCC(F)F)c(N4C(=O)NC5(CCN(C6COC6)CC5)C4=O)cc3[nH]2)c1N [Example 5-1-350, 3-[2-[5-amino-1-[6-(2,6-difluorophenoxy)-4-methylpyridin-3-yl]pyrazole-4-carbonyl]-5-(2,2-difluoroethoxy)-1H-indol-6-yl]-8-(oxetan-3-yl)-1,3,8-triazaspiro[4.5]decane-2,4-dione] | 0.88 | 13 | 3.3 |
| Cc1cc(Oc2c(F)cccc2F)ncc1-n1ncc(C(=O)c2cc3cc(OCC(F)F)c(N4C(=O)NC5(CCN(Cc6ccccc6)CC5)C4=O)cc3[nH]2)c1N [Example 5-1-351, 3-[2-[5-amino-1-[6-(2,6-difluorophenoxy)-4-methylpyridin-3-yl]pyrazole-4-carbonyl]-5-(2,2-difluoroethoxy)-1H-indol-6-yl]-8-benzyl-1,3,8-triazaspiro[4.5]decane-2,4-dione] | 0.65 | 6 | 2.4 |
| Cc1cc(Oc2c(F)cccc2F)ncc1-n1ncc(C(=O)c2cc3cc(OCC(F)F)c(N4C(=O)NC5(CCN(C6COC6)C5)C4=O)cc3[nH]2)c1N (stereo not drawn) [Example 5-1-352, 3-[2-[5-amino-1-[6-(2,6-difluorophenoxy)-4-methylpyridin-3-yl]pyrazole-4-carbonyl]-5-(2,2-difluoroethoxy)-1H-indol-6-yl]-7-(oxetan-3-yl)-1,3,7-triazaspiro[4.4]nonane-2,4-dione] | 11 | 160 | 17 |
| Cc1cc(Oc2ccccc2F)ccc1-n1ncc(C(=O)c2cc3cc(OCC(F)F)c(N4C(=O)NC5(CCN(C6COC6)C5)C4=O)cc3[nH]2)c1N (stereo not drawn) [Example 5-1-353, 3-(2-(5-amino-1-(4-(2-fluorophenoxy)-2-methylphenyl)-1H-pyrazole-4-carbonyl)-5-(2,2-difluoroethoxy)-1H-indol-6-yl)-7-(oxetan-3-yl)-1,3,7-triazaspiro[4.4]nonane-2,4-dione] | 5.5 | 73 | 14 |
| Cc1cc(Oc2c(F)cccc2F)ncc1-n1ncc(C(=O)c2cc3cc(OCC(F)F)c(N4C(=O)NC5(CCN(Cc6ccccc6)C5)C4=O)cc3[nH]2)c1N (stereo not drawn) [Example 5-1-354, 3-[2-[5-amino-1-[6-(2,6-difluorophenoxy)-4-methylpyridin-3-yl]pyrazole-4-carbonyl]-5-(2,2-difluoroethoxy)-1H-indol-6-yl]-7-benzyl-1,3,7-triazaspiro[4.4]nonane-2,4-dione] | 1.4 | 13 | 2.9 |
| Cc1cc(Oc2ccccc2F)ccc1-n1ncc(C(=O)c2cc3cc(OCC(F)F)c(N4C(=O)NC5(CCN(Cc6ccccc6)C5)C4=O)cc3[nH]2)c1N (stereo not drawn) [Example 5-1-355, 3-[2-[5-amino-1-[4-(2-fluorophenoxy)-2-methylphenyl]pyrazole-4-carbonyl]-5-(2,2-difluoroethoxy)-1H-indol-6-yl]-7-benzyl-1,3,7-triazaspiro[4.4]nonane-2,4-dione] | 8 | 97 | 13 |
| Cc1cc2cc(C(=O)c3cnn(-c4ccc(Oc5ccccc5F)cc4C)c3N)[nH]c2cc1N1C(=O)NC(C)(C)C1=O [Example 5-1-356, 3-[2-[5-amino-1-[4-(2-fluorophenoxy)-2-methylphenyl]pyrazole-4-carbonyl]-5-methyl-1H-indol-6-yl]-5,5-dimethylimidazolidine-2,4-dione] | 0.87 | 17 | 4.4 |
| Cc1cc2cc(C(=O)c3cnn(-c4cnc(Oc5c(F)cccc5F)cc4C)c3N)[nH]c2cc1N1C(=O)NC2(CCNCC2)C1=O [Example 5-1-357, 3-[2-[5-amino-1-[6-(2,6-difluorophenoxy)-4-methylpyridin-3-yl]pyrazole-4-carbonyl]-5-methyl-1H-indol-6-yl]-1,3,8-triazaspiro[4.5] decane-2,4-dione] | 2.3 | 39 | 4.4 |
| Cc1cc2cc(C(=O)c3cnn(-c4cnc(Oc5c(F)cccc5F)cc4C)c3N)[nH]c2cc1N1C(=O)NC2(CCNC2)C1=O (stereo not drawn) [Example 5-1-358, 3-[2-[5-amino-1-[6-(2,6-difluorophenoxy)-4-methylpyridin-3-yl]pyrazole-4-carbonyl]-5-methyl-1H-indol-6-yl]-1,3,7-triazaspiro[4.4] nonane-2,4-dione] | 1.8 | 21 | 4.2 |
| Cc1cc(Oc2ccccc2F)ncc1-n1ncc(C(=O)c2cc3cc(SC(F)F)c(N4C(=O)NC(C)(C)C4=O)cc3[nH]2)c1N [Example 5-1-359, 3-[2-[5-amino-1-[6-(2-fluorophenoxy)-4-methylpyridin-3-yl]pyrazole-4-carbonyl]-5-(difluoromethylsulfanyl)-1H-indol-6-yl]-5,5-dimethylimidazolidine-2,4-dione] | 6 | 130 | 25 |
| Cc1cc2cc(C(=O)c3cnn(-c4cnc(Oc5c(F)cccc5F)cc4C)c3N)[nH]c2cc1N1C(=O)NC2(CCN(C3COC3)CC2)C1=O [Example 5-1-360, 3-[2-[5-amino-1-[6-(2,6-difluorophenoxy)-4-methylpyridin-3-yl]pyrazole-4-carbonyl]-5-methyl-1H-indol-6-yl]-8-(oxetan-3-yl)-1,3,8-triazaspiro[4.5]decane-2,4-dione] | 2.2 | 19 | 6.3 |
